Literature values in US12201667B2, “Formulations for treating cramps and spasms” (LYTONE ENTERPRISE, INC., priority 2020, dated 2025).

Details: background statement

SMILES: C=C[C@H]1C[N@@]2CC[C@H]1C[C@H]2[C@H](O)c1ccnc2ccc(OC)cc12 [quinine, Quinine]
- reduction of cramp frequency: about a quarter
